Each structure is given as a SMILES string. Structures can show the parent of a compound that is named as a salt. Where two headings read alike, the source gives them in different places.

These results are taken from patent US10562878B2, “Cycloalkylamines as monoamine reuptake inhibitors” (Sunovion Pharmaceuticals Inc., priority 2006, dated 2020).

Test [1] has as its system mice. In words: Mouse tail suspension test. The class given is in vivo.
Test [2] concerns the target human dopamine transporter (Homo sapiens (Human), UniProt Q01959). The experiment in a line: Dopamine functional uptake assay, recombinant human transporter in CHO-K1 or HEK293 cells. The class given is cell-based. Conditions: read-out: hDAT IC50.
Test [3] deals with T1, Norepinephrine Transporter (NET) sites in mouse brain (Mus musculus (Mouse), UniProt O55192). Conditions: mice, 60 min after treatment.
Test [4] concerns the target 5-HT Transporter (SERT) sites in mouse brain (Mus musculus (Mouse), UniProt Q60857). The experiment in a line: Ex vivo [3H] citalopram binding to SERT sites in mouse brain after oral dosing. Conditions: mice, 60 min after treatment.
For test [5], the system named is mice. The experiment in a line: Mouse locomotor activity. The class given is in vivo.
A further test relates to Rats. In words: Rat forced swim test. It counts as in vivo.
Test [6] deals with DA Transporter (DAT) sites in mouse brain (Mus musculus (Mouse), UniProt Q61327). In words: Ex vivo [3H] WIN 35428 binding to DAT sites in mouse brain after oral dosing. Conditions: mice, 60 min after treatment.
For test [7] the following is noted: in vivo; cited from earlier work.
Test [8] has as its target human norepinephrine reuptake transporter (Homo sapiens (Human), UniProt P23975). The conditions noted are these: cited from earlier work.
Test [9] has as its target rat serotonin (5-HT) reuptake transporter (Rattus norvegicus (Rat), UniProt P31652). The experiment in a line: Serotonin functional uptake assay, rat synaptosomes. It counts as biochemical. The conditions noted are these: read-out: rSERT IC50.
Test [10] has as its target rat dopamine reuptake transporter (Rattus norvegicus (Rat), UniProt P23977). The experiment in a line: Dopamine functional uptake assay, rat striatal synaptosomes. The conditions noted are these: read-out: rDAT IC50. The class given is biochemical.
Test [11] addresses T1, Norepinephrine Transporter (NET) sites in mouse brain. In words: in vivo. The conditions noted are these: po, read-out: NET % Transporter Occupancy.
Test [12] addresses human serotonin transporter (Homo sapiens (Human), UniProt P31645). The experiment in a line: Serotonin functional uptake assay, recombinant human transporter in HEK-293 cells. It counts as cell-based. Conditions: Human serotonin transporter uptake; read-out: hSERT IC50.

human dopamine transporter, sequence (Q01959 whole entry): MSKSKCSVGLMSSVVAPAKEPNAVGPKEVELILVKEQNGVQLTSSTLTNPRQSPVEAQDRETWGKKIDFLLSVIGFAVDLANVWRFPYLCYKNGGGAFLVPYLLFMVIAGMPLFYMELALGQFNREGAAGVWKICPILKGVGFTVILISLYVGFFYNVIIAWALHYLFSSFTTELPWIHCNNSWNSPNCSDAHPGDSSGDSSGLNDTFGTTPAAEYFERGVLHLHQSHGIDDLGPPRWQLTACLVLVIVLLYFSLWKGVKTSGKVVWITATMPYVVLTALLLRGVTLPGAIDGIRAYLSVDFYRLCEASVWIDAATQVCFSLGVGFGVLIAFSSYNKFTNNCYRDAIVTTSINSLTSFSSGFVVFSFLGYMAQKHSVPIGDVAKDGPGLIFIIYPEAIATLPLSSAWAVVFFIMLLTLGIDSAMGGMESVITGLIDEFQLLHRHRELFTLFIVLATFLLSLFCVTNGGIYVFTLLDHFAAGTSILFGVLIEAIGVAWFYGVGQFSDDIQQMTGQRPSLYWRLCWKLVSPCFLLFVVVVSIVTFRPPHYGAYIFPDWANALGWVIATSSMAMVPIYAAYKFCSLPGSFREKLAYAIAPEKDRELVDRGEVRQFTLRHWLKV
human serotonin transporter, sequence (P31645 whole entry): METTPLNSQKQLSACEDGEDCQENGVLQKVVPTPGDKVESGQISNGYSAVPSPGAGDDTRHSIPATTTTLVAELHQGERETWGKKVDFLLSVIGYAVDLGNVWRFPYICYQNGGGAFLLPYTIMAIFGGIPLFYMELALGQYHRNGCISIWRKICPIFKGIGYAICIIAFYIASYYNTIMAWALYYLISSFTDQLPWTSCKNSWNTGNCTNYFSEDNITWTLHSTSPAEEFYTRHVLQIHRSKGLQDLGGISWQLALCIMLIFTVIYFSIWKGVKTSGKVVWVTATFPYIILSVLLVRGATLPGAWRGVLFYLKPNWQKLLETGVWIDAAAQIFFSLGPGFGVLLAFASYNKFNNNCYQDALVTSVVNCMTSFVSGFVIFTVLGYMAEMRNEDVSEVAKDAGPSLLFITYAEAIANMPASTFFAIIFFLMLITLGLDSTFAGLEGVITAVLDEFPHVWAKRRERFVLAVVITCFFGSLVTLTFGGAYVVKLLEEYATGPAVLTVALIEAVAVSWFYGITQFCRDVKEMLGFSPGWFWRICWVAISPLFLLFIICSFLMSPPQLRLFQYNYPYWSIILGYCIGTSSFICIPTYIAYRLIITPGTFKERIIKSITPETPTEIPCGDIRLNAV

For the molecule `CN(C)C[C@]1(c2ccc3ccccc3c2)CC[C@](C)(O)CC1` [Compound 225, (1s,4s)-4-((dimethylamino)methyl)-1-methyl-4-(naphthalen-2-yl)cyclohexanol], the “Mouse Tail Suspension Mean Immobility Time ± S.E.M.” value with mice [1] (10 mg/kg PO) was found to be 137.8 ± 5.2; in the test with mice [1] (30 mg/kg PO) it was 136.3 ± 2.5. For the same molecule, the IC50 in test [2] came to 167 nM. The “NET Mean Specific Binding ± S.E.M.” value in [3] (1 mg/kg PO) is 1170 ± 68 dpm; in [3] (3 mg/kg PO) it was 813 ± 64 dpm; in [3] (10 mg/kg PO), 393 ± 21 dpm; in test [3] (30 mg/kg PO) it was 230 ± 33 dpm. Moreover, the “SERT Mean Specific Binding ± S.E.M.” value in test [4] (1 mg/kg PO) amounted to 3842 ± 152 dpm; in [4] (3 mg/kg PO) it was 2118 ± 139 dpm; in [4] (10 mg/kg PO) it was 904 ± 35 dpm; in test [4] (30 mg/kg PO) it was 414 ± 37 dpm. The “Mouse Locomotor Activity Total Distance Traveled ± S.E.M.” value in the test with mice [5] (0.3 mg/kg PO) was 519.5 ± 56.4; in the test on mice [5] (1 mg/kg PO), 423.4 ± 62.3. Also, the entries for the “Rat Forced Swim Climbing (Means ± S.E.M.)” value with Rats (3 mg/kg PO), in the test with Rats (10 mg/kg PO) and with Rats (30 mg/kg PO) were 8.4 ± 1.7, 11.1 ± 2.7 and 25.0 ± 4.6, respectively. Further, the results for the “Rat Forced Swim Immobility (Means ± S.E.M.)” value in the test on Rats (3 mg/kg PO), in the test with Rats (10 mg/kg PO) and with Rats (30 mg/kg PO) were 50.8 ± 1.8, 47.6 ± 3.0 and 33.4 ± 4.8, respectively. Further, the figures for the “Rat Forced Swim Swimming (Means ± S.E.M.)” value with Rats (3 mg/kg PO), in the test with Rats (10 mg/kg PO) and with Rats (30 mg/kg PO) were 0.8 ± 0.3, 1.2 ± 0.6 and 1.1 ± 0.5, respectively. The “DAT Mean Specific Binding ± S.E.M.” value turned out to be 19787 ± 3338 dpm in test [6] (1 mg/kg PO), 21666 ± 3698 dpm in test [6] (3 mg/kg PO), 18872 ± 2775 dpm in [6] (10 mg/kg PO) and 14618 ± 1209 dpm in [6] (30 mg/kg PO).
With `Clc1ccc(C23CNCC2C3)cc1Cl` (single isomer, unassigned) [DOV 21,947, H-1-(3,4-dichlorophenyl)-3-azabicyclo[3.1.0]hexane], the “immobility in the tail suspension test” value in [7] is given as “dose-dependent reduction in immobility”.
Regarding `COC(=O)C(c1ccccc1)C1CCCCN1` (stereo not shown) [methylphenidate], in test [8], the “reported potency (IC50 or Ki), inhibition of human norepinephrine reuptake transporter” value is given as 38 nM.
For the molecule `CCC(N)C1(c2ccc(Cl)c(Cl)c2)CCCCC1` (single isomer, unassigned) [17 E1, 1-(1-(3,4-dichlorophenyl)cyclohexyl)propan-1-amine], the “Mouse Tail Suspension Mean Immobility Time ± S.E.M.” value in the test with mice [1] (3 mg/kg PO) stood at 184.7 ± 9.0; in the test on mice [1] (10 mg/kg PO) it was 182.6 ± 4.1; with mice [1] (30 mg/kg PO) it was 150.9 ± 7.8. The “Mouse Locomotor Activity Total Distance Traveled ± S.E.M.” value in the test on mice [5] (3 mg/kg PO) is recorded as 649.3 ± 78.4; in the test on mice [5] (10 mg/kg PO), 478.3 ± 88.5; in the test on mice [5] (30 mg/kg PO), 428.3 ± 120.6.
Take `CN(C)C[C@]1(c2ccc(Cl)c(Cl)c2)CCC[C@H](O)C1` (single isomer, unassigned) [190 E2, Cis-3-(3,4-dichlorophenyl)-3-((dimethylamino)methyl)cyclohexanol]: the IC50 in test [9] worked out at 120 nM; in [2] it was 3 nM; in test [10] it was 45 nM.
As for `CN(C)C[C@]1(c2ccc3ccccc3c2)CCCC[C@H]1O` (relative stereo) [164 E1, trans-2-((dimethylamino)methyl)-2-(naphthalen-2-yl)cyclohexanol], the “Mouse Tail Suspension Mean Immobility Time ± S.E.M.” value in the test on mice [1] (10 mg/kg PO) is 162.1 ± 4.6; in the test with mice [1] (30 mg/kg PO), 155.3 ± 7.8. In addition, the receptor occupancy at 1 mg/kg is -8% in [11]; 20% in test [4] (mouse, 1 mg/kg PO); -11% in [6] (mouse, 1 mg/kg PO). The receptor occupancy at 3 mg/kg in [11] was -1%; in test [4] (mouse, 3 mg/kg PO), 35%; in test [6] (mouse, 3 mg/kg PO), 16%. The receptor occupancy at 10 mg/kg in test [11] was 13%; in [4] (mouse, 10 mg/kg PO), 78%; in test [6] (mouse, 10 mg/kg PO), 17%. In addition, the receptor occupancy at 30 mg/kg in [11] is 41%; in test [4] (mouse, 30 mg/kg PO), 92%; in [6] (mouse, 30 mg/kg PO), 27%. The “NET Mean Specific Binding ± S.E.M.” value in test [3] (1 mg/kg PO) is 1122 ± 58 dpm; in [3] (3 mg/kg PO), 1046 ± 23 dpm; in test [3] (10 mg/kg PO) it was 903 ± 48 dpm; in [3] (30 mg/kg PO) it was 610 ± 59 dpm. Moreover, the “SERT Mean Specific Binding ± S.E.M.” value is given as 2796 ± 133 dpm in test [4] (1 mg/kg PO), 2273 ± 74 dpm in test [4] (3 mg/kg PO), 783 ± 61 dpm in [4] (10 mg/kg PO) and 271 ± 50 dpm in test [4] (30 mg/kg PO). Moreover, the “Mouse Locomotor Activity Total Distance Traveled ± S.E.M.” value in the test with mice [5] (10 mg/kg PO) was found to be 210.3 ± 40.4. Further, the “DAT Mean Specific Binding ± S.E.M.” value in test [6] (1 mg/kg PO) was determined as 23574 ± 1313 dpm; in test [6] (3 mg/kg PO), 18002 ± 1516 dpm; in [6] (10 mg/kg PO), 17727 ± 2871 dpm; in test [6] (30 mg/kg PO) it was 15630 ± 1085 dpm.
As for `CN(C)C[C@]1(c2ccc(Cl)c(Cl)c2)CC[C@H](O)CC1` [Compound 288, (1s,4s)-4-(3,4-dichlorophenyl)-4-((dimethylamino)methyl)-cyclohexanol], the IC50 was found to be 67 nM in test [9], 22 nM in test [2], 84 nM in test [12] and 370 nM in [10].
With `CNCC1(c2ccc(Cl)c(Cl)c2)CCCCC1` [Compound 75, 1-(1-(3,4-dichlorophenyl)cyclohexyl)-N-methylmethanamine (hydrochloride)], the “Mouse Tail Suspension Mean Immobility Time ± S.E.M.” value with mice [1] (3 mg/kg PO) is 187.8 ± 9.6; in the test with mice [1] (10 mg/kg PO), 177.7 ± 5.8; with mice [1] (30 mg/kg PO), 143.5 ± 5.8. The “Mouse Locomotor Activity Total Distance Traveled ± S.E.M.” value in the test with mice [5] (3 mg/kg PO) is on record as 653.5 ± 48.4; in the test with mice [5] (10 mg/kg PO), 608.8 ± 83.4; with mice [5] (30 mg/kg PO), 655.3 ± 117.7.
For `CNC(C)C1(c2ccc(Cl)c(Cl)c2)CCCCC1` (single isomer, unassigned) [44 E1, 1-(1-(3,4-dichlorophenyl)cyclohexyl)-N-methylethanamine], the “Mouse Tail Suspension Mean Immobility Time ± S.E.M.” value in the test on mice [1] (30 mg/kg PO) was 120.4 ± 9.0. In addition, the “Mouse Locomotor Activity Total Distance Traveled ± S.E.M.” value with mice [5] (30 mg/kg PO) was found to be 402.3 ± 71.0.

Broadly, the IC50 is the concentration that inhibits the measured activity by half.
